Test system: HT-1080 cells
Assay: HT-1080 cell viability assay (ferroptosis induced by RSL3, Cell Titer-Glo)
Type: cell-based
Details: Homo sapiens, HT-1080, 20 h, ferroptosis inducer RSL3, 20 hours, ferroptosis inhibitory activity, Table 2
How it was run: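 EC50 fitted by sigmoidal dose-response regression on luminescent viability data normalized to untreated cells. Compounds ran as a 10-point, 3-fold series from 1.1 μM alongside RSL3 for 20 hours, after overnight seeding.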

SMILES	EC50
CC1(C)CCC(c2ccc(NC3CCS(=O)(=O)CC3)cc2)CC1 [Compound 261, 4-((4-(4,4-dimethylcyclohexyl)phenyl)amino)tetrahydro-2H-thiopyran 1,1-dioxide]	100 to 1000 nM
CNC(=O)C1CCC(Nc2ccc(N3CCC(C(F)(F)F)CC3)cc2)CC1 (stereo not drawn) [Compound 365, N-methyl-4-((4-(4-(trifluoromethyl)piperidin-1-yl)phenyl)amino)cyclohexane-1-carboxamide]	0.1 to 100 nM
CC1CCN(c2ccc(NC3CCC(N)CC3)cc2C(F)(F)F)CC1 (stereo not drawn) [Compound 53A, N1-(4-(4-methylpiperidin-1-yl)-3-(trifluoromethyl)phenyl)cyclohexane-1,4-diamine]	0.1 to 100 nM
NCC1CCC(Nc2ccc3c(c2)CCC3)CC1 (stereo not drawn) [Compound 235, N-(4-(aminomethyl)cyclohexyl)-2,3-dihydro-1H-inden-5-amine]	0.1 to 100 nM
CCOCC(C)(C)c1ccc(NC2CCC(N)CC2)cc1 (stereo not drawn) [Compound 320A, N1-(4-(1-ethoxy-2-methylpropan-2-yl)phenyl)cyclohexane-1,4-diamine]	100 to 1000 nM
CC1CN(c2ccc3cc(NC4CC5(CC(N)C5)C4)ccc3c2)CC(C)O1 (stereo not drawn) [Compound 564, N^2-(6-(2,6-dimethylmorpholino)naphthalen-2-yl)spiro[3.3]heptane-2,6-diamine]	0.1 to 100 nM
Cc1cc(N2CC(C)CC(C)C2)ccc1NC[C@H]1CC[C@H](N)CC1 (stereo partly drawn) [Compound 418]	0.1 to 100 nM
Cc1cc(N2CCC(C(F)(F)F)CC2)cc(C)c1NCC[C@H]1CC[C@H](N)CC1 [Compound 391, N-(2-((1r,4r)-4-aminocyclohexyl)ethyl)-2,6-dimethyl-4-(4-(trifluoromethyl)piperidin-1-yl) aniline]	0.1 to 100 nM
Cc1ccc(NC2CCC(N)CC2)cc1C (stereo not drawn) [Compound 240, N1-(3,4-dimethylphenyl)cyclohexane-1,4-diamine]	100 to 1000 nM
Cc1cc(N2CCCOCC2)ccc1NC1CC2(CC(N)C2)C1 (stereo not drawn) [Compound 465, N2-(2-methyl-4-(1,4-oxazepan-4-yl)phenyl)spiro[3.3]heptane-2,6-diamine]	0.1 to 100 nM
CC[C@@H]1CN(c2ccc(NC3CCC(N)CC3)c(C)n2)C[C@@H](CC)O1 (stereo partly drawn) [Compound 552, N1-(6-((2R,6R)-2,6-diethylmorpholino)-2-methylpyridin-3-yl)cyclohexane-1,4-diamine]	0.1 to 100 nM
Cc1nc(N2C[C@@H](C)N(CC(F)(F)F)[C@@H](C)C2)ccc1NC1CCC(N)CC1 (stereo partly drawn) [Compound 542]	0.1 to 100 nM
CC(C)(C)c1ccc(NC2CCC(CNC(=O)[C@H]3CNC(=O)N3)CC2)cc1 (single isomer, unassigned) [Compound 143A]	100 to 1000 nM
Cc1cc(NC[C@H]2CC[C@H](N)CC2)cc(C)c1N1CC(C)OC(C)C1 (stereo partly drawn) [Compound 451, (((1r,4r)-4-aminocyclohexyl)methyl)-4-(2,6-dimethylmorpholino)-3,5-dimethylaniline]	0.1 to 100 nM
CC(C)(C)c1ccc(NC2CCC(NCC(O)CN)CC2)cc1 (stereo not drawn) [Compound 349A, 1-amino-3-((4-((4-(tert-butyl)phenyl)amino)cyclohexyl)amino)propan-2-ol]	0.1 to 100 nM
Cc1nc(N2CC(C)(C)OC(C)(C)C2)ccc1NC[C@H]1CC[C@H](N)CC1 [Compound 514, N-(((1r,4r)-4-aminocyclohexyl)methyl)-2-methyl-6-(2,2,6,6-tetramethylmorpholino)pyridin-3-amine]	0.1 to 100 nM
Cc1nc(N2CC(C)N(CC(F)(F)F)C(C)C2)ccc1NC1CC2(CC(N)C2)C1 (stereo not drawn) [Compound 493, N2-(6-(3,5-dimethyl-4-(2,2,2-trifluoroethyl)piperazin-1-yl)-2-methylpyridin-3-yl)spiro[3.3]heptane-2,6-diamine]	0.1 to 100 nM
CCCCc1ccc(NC2CCC(N)CC2)cc1 (stereo not drawn) [Compound 137, N1-(4-butylphenyl)cyclohexane-1,4-diamine]	0.1 to 100 nM

SMILES	EC50
CC(C)C1CCN(c2ncc(NC[C@H]3CC[C@@H](N)CC3)cn2)CC1 [Compound 361, N-(((1s,4s)-4-aminocyclohexyl)methyl)-2-(4-isopropylpiperidin-1-yl)pyrimidin-5-amine]	0.1 to 100 nM
CC(C)(C)c1ccc(NC[C@H]2CC[C@H](NCCO)CC2)cc1 [Compound 323, 2-(((1r,4r)-4-(((4-(tert-butyl)phenyl)amino)methyl)cyclohexyl)amino)ethan-1-ol]	0.1 to 100 nM
CC(C)C1CCN(c2ncc(NC3C4CC5CC3CC(O)(C5)C4)cn2)CC1 (stereo not drawn) [Compound 424, 4-((2-(4-isopropylpiperidin-1-yl)pyrimidin-5-yl)amino) adamantan-1-ol]	0.1 to 100 nM
CC1(C)CCC(c2ccc(NC3CCCC(CN)CC3)cc2)CC1 (stereo not drawn) [Compound 85, 4-(aminomethyl)-N-(4-(4,4-dimethylcyclohexyl)phenyl)cycloheptan-1-amine]	0.1 to 100 nM
CC1(C)CCC(c2ccc(NC3CCC(O)CC3)cc2)CC1 (single isomer, unassigned) [Compound 205A, 4-((4-(4,4-dimethylcyclohexyl)phenyl)amino)cyclohexan-1-ol]	0.1 to 100 nM
CC1CN(c2cc(F)c(NC[C@H]3CC[C@H](N)CC3)cc2F)CC(C)O1 (stereo partly drawn) [Compound 481, N-(((1r,4r)-4-aminocyclohexyl)methyl)-4-(2,6-dimethylmorpholino)-2,5-difluoroaniline]	100 to 1000 nM
N[C@H]1CC[C@H](CNc2ccc(N3CCC(C(F)(F)F)CC3)nc2F)CC1 [Compound 395, N-(((1r, 4r)-4-aminocyclohexyl)methyl)-2-fluoro-6-(4-(trifluoromethyl)piperidin-1-yl)pyridin-3-amine]	0.1 to 100 nM
CC1CC(Nc2ccc(C(C)(C)C)cc2)CCC1N (stereo not drawn) [Compound 250A, N1-(4-(tert-butyl)phenyl)-3-methylcyclohexane-1,4-diamine]	0.1 to 100 nM
CC1(C)CCC(c2ccc(NC3CCC(NC(=O)[C@H]4CNC(=O)N4)C3)cc2)CC1 (mixture of isomers) [Compound 155]	0.1 to 100 nM
Cc1cc(C)cc(NC2CCC(N)CC2)c1 (stereo not drawn) [Compound 331, N1-(3,5-dimethylphenyl)cyclohexane-1,4-diamine]	100 to 1000 nM
CC1CCN(c2ncc(NC3C4CC5CC3CC(C(N)=O)(C5)C4)cn2)CC1 (stereo not drawn) [Compound 405, 4-((2-(4-methylpiperidin-1-yl)pyrimidin-5-yl)amino)adamantane-1-carboxamide]	0.1 to 100 nM
Cc1nc(N2CCC(C(F)(F)F)CC2)ncc1NC1CCC(N)CC1 (single isomer, unassigned) [Compound 65A, N1-(4-methyl-2-(4-(trifluoromethyl)piperidin-1-yl)pyrimidin-5-yl)cyclohexane-1,4-diamine]	0.1 to 100 nM
COCCCCOc1cc(NC2CCC(N)CC2)ccc1C(C)(C)C (stereo not drawn) [Compound 254, N1-(4-(tert-butyl)-3-(4-methoxybutoxy)phenyl)cyclohexane-1,4-diamine]	0.1 to 100 nM
Cc1nc(N2CC[C@H]3OCCC[C@@H]3C2)ccc1NC1CC2(CC(N)C2)C1 (stereo partly drawn) [Compound 508, N2-(6-((4aR,8aR)-hexahydro-2H-pyrano [3,2-c]pyridin-6 (5H)-yl)-2-methylpyridin-3-yl)spiro[3. 3]heptane-2,6-diamine]	0.1 to 100 nM
CCC1CCN(c2ccc(NC3CCC(N)CC3)c(C)c2)CC1 (stereo not drawn) [Compound 390, N1-(4-(4-ethylpiperidin-1-yl)-2-methylphenyl)cyclohexane-1,4-diamine]	0.1 to 100 nM
CC1(C)CCC(c2ccc(NC3CNC(=O)C3)cc2)CC1 (stereo not drawn) [Compound 141, 4-((4-(4,4-dimethylcyclohexyl)phenyl)amino)pyrrolidin-2-one]	100 to 1000 nM
CC1(C)CCC(c2ccc(NC3CCNC(=O)C3)cc2)CC1 (stereo not drawn) [Compound 102, 4-((4-(4,4-dimethylcyclohexyl)phenyl)amino)piperidin-2-one]	0.1 to 100 nM

Same assay, conditions: Homo sapiens, HT-1080, 20 h, ferroptosis inducer RSL3, 20 hours, ferroptosis inhibitory activity, Table 3

SMILES	EC50
Cc1nc(N2CC(C)(C)OC(C)(C)C2)ccc1NC1CC2(CC(NCC(F)(F)F)C2)C1 (stereo not drawn) [Compound 589]	0.1 to 100 nM
Cc1nc(N2CCOC3(CC3)C2)ccc1NC1CC2(CC(N)C2)C1 (stereo not drawn) [Compound 623, N^2-(2-methyl-6-(4-oxa-7-azaspiro[2.5]octan-7-yl)pyridin-3-yl)spiro[3.3]heptane-2,6-diamine]	0.1 to 100 nM
Cc1nc(N2CCC3(CCCOC3)CC2)ccc1NC[C@H]1CC[C@H](N)CC1 [Compound 581, N-(((1r,4r)-4-aminocyclohexyl)methyl)-2-methyl-6-(2-oxa-9-azaspiro [5.5]undecan-9-yl)pyridin-3-amine]	0.1 to 100 nM
NC1CC(Nc2ccc3nc(N4CCC(C(F)(F)F)CC4)ccc3c2)C1 (stereo not drawn) [Compound 592, N1-(2-(4-(trifluoromethyl)piperidin-1-yl)quinolin-6-yl)cyclobutane-1,3-diamine]	0.1 to 100 nM
CC(C)c1nc(N2C[C@@H](C)O[C@@H](C)C2)ccc1NC1CC2(CC(N)C2)C1 (stereo partly drawn) [Compound 613, N^2-(6-((2S, 6R)-2,6-dimethylmorpholino)-2-isopropylpyridin-3-yl)spiro[3.3]heptane-2,6-diamine]	0.1 to 100 nM
CC1CN(c2ccc3cc(NC4CC(N)C4)ccc3c2)CCO1 (stereo not drawn) [Compound 629, N^1-(6-(2-methylmorpholino)naphthalen-2-yl)cyclobutane-1,3-diamine]	0.1 to 100 nM
CCc1nc(N2CC(C)OC(C(F)(F)F)C2)ccc1NC1CC2(CC(N)C2)C1 (stereo not drawn) [Compound 659, N2-(2-ethyl-6-(2-methyl-6-(trifluoromethyl)morpholino)pyridin-3-yl)spiro[3.3]heptane-2,6-diamine]	0.1 to 100 nM
CC1CN(c2ccc(NC3CC4(CC(N)C4)C3)c(F)n2)CC(C)N1CC(F)(F)F (stereo not drawn) [Compound 579, N2-(6-(3,5-dimethyl-4-(2,2,2-trifluoroethyl)piperazin-1-yl)-2-fluoropyridin-3-yl)spiro[3.3]heptane-2,6-diamine]	0.1 to 100 nM
Cc1nc(N2CCN(CC(F)(F)F)C(C)C2)ccc1NC1CC2(CC(NC(N)=O)C2)C1 (stereo not drawn) [Compound 603]	0.1 to 100 nM

Same assay, conditions: ferroptosis inducer RSL3, 20 hours, ferroptosis inhibitory activity, Table 2

SMILES	EC50
Cc1cc(N2CC(C)OC(C)C2)ccc1NCC1CCC(N)CC1 (stereo not drawn) [Compound 407, N-(((1r,4r)-4-aminocyclohexyl)methyl)-4-(2,6-dimethylmorpholino)-2-methylaniline]	0.1 to 100 nM

Source: patent US20240360114A1 (SIRONAX LTD., priority 2021, published 2024)
